Laboratory results: patent US7745465B2, “Method of enhancing cellular production of molecular chaperone, hydroxylamine derivatives useful for enhancing the chaperone production and the preparation thereof” (CytRx Corporation, priority 1995, dated 2010)

Key:
[1] = test system: Hsp72; assay: Western blot of hsp72 in heat shocked H9c2 cells; assay type: cell-based, rat
Procedure: (§1) Experiments set forth in this section were conducted to determine whether N-[2-hydroxy-3-(1-piperidinyl)propoxy]-3-pyridinecarboximidoyl chloride maleate acts to increase the expression of molecular chaperon by a cell. The accumulation of different heat shock proteins subsequent to a period of exposure to heat shock alone, and to heat shock in combination with N-[2-hydroxy-3-(1-piperidinyl)propoxy]-3-pyridinecarboximidoyl chloride maleate administration, was examined by adding 10^−5 M of N-[2-hydroxy-3-(1-piperidinyl)propoxy]-3-pyridinecarboximidoyl chloride maleate before, during, or immediately after hyperthermic treatment of heart myogenic cells (H9c2 cells).
(§2) The embryonic rat heart-derived cell line H9c2 was obtained from European Collection of Animal cell Cultures (ECACC) (88092904). The cells were maintained at 37° C. in Dulbecco's modified Eagle's medium (DMEM) supplemented with 10% fetal calf serum (GIBCO) in JOUAN C02 thermostat (5% CO2).
(§3) Heat shock was performed at 43° C. in CO2 thermostat for the given time intervals (20, 40, 60, 90 and 120 min.). Cells were then taken back to 37° C. for 6 hours and proteins were extracted for SDS-PAGE. […]
(§4) Protein concentration was determined from 5:1 samples by the Bradford assay (M. M. Braford, Anal. Biochem., 72: 248-254 (1976)) in three parallel. […]

[2] = test system: isolated working rat hearts; assay: Isolated working rat hearts, 10-min. coronary occlusion and 3-min. reperfusion; conditions: for cardioprotection after pretreatment: 20 mg/kg
Procedure: After a 10-min. aerobic working perfusion, hearts (n=10 in each group) were subjected to a 10-min. coronary occlusion followed by a 3-min. reperfusion in the presence of 0.05, 0.5, 5.0, 20.0, and 50 mg/L N-[2-hydroxy-3-(1-piperidinyl)propoxy]-3-pyridine carboximidoyl chloride maleate, respectively.
After excision of the hearts, they were subjected to the coronary occlusion protocol detailed above while perfused in presence/absence of 20 mg/l N-[2-hydroxy-3-(1-piperidinyl)propoxy]-3-piridinecarboximidoyl chloride maleate.

[3] = test system: HSP72; assay: Heat stress induced hsp72 level in L-929 mouse fibroblast cells; assay type: cell-based; conditions: L-929 cells, 10^−5 M, treatment preceded heat stress
Procedure: From the applied cells the 3T3 and L-929 mouse fibroblasts were cultured in MEM medium and grew in monolayer, the U-937 human leukemia cells were maintained in RPMI-1640 medium, in suspension culture, while the HeLa human epithelial cells were cultured in DMEM medium and in monolayer form. Cell cultures were maintained as described in example 6.2 (a) with the difference that cells were cultured in the above mentioned culture mediums.
Experiments were carried out applying stress before and after the drug treatment. Stress was provoked by heat, by chemical agent, HgCl2 treatment. The test compounds were applied in the treatments at the 10^−5 M concentration.
The experiments on 3T3 cell applying heat stress were performed as described in the 6.2. (c) point of example 6, with the difference that stress was induced by a 30 min. exposure at 43° C. temperature and treatment with the test compounds was performed 15 min. before or 100 min. after the heat stress.
Experiments using heat shock on U-937 leukemia and L-929 mouse fibroblast cells were carried out similarly as described above, but drug treatments in these tests always preceded the heat stress. The compound N-[2-hydroxy-3-(1-piperidinyl)-propoxy]-3-pyridine-carboximidoyl chloride maleate was tested at the 10^−5 M concentration under these experimental conditions.

[4] = test system: HSPs; assay: Western blot overview of all HSPs in heat shocked H9c2 heart cells; assay type: cell-based, rat; conditions: added 16 hours before the heat treatment
Procedure: as §1, §2, §3, §4

[5] = test system: GRP-94; assay: Level of GRP-94 in STZ diabetic rat liver (Western blot); assay type: in vivo; conditions: for relative amount of GRP-94: rats diabetic for 4 weeks
[6] = test system: Grp94; assay: Western blot of Grp94 in heat shocked H9c2 cells; assay type: cell-based, rat
Procedure: as §1, §2, §3, §4

[7] = test system: yeast cells; assay: Proliferation of yeast cells; assay type: cell-based

O=C(O)/C=C\C(=O)O.OC(CON=C(Cl)c1cccnc1)CN1CCCCC1 (centres unmarked) [N-[2-hydroxy-3-(1-piperidinyl)-propoxy]3-pyridinecarboximidoyl chloride maleate] was tested, and the “effect on hsp72 level” value ([1]; added during the recovery phase) was “also effective though to a lesser degree”, the “hsp72 level increased when comparing to 37° C. samples” value ([1]; administration before heat stress, 60 min. heat stress) was “about 50 times” and the cardioprotection after pretreatment ([2]; five hours before isolation of the hearts) was “not observable”. The cardioprotection after pretreatment ([2]; one hour before isolation of the hearts) was “still afforded cardioprotection”, the “ischemia-induced deterioration of cardiac function” value ([2]; 0.05-50 mg/L, bell-shaped, 20 mg/L most pronounced) was “alleviated ischemia-induced deterioration of cardiac function” and the “heart rate before ischemia” value ([2]; 50 mg/L) was “significant bradycardia”. For the same compound, the “coronary flow (CF)” value ([2]; before ischemia, bell-shaped concentration-response) was “increased coronary flow (CF)”, the reperfusion-induced ventricular fibrillation ([2]; higher concentrations) was “dose-dependent antiarrhythmic effect” and the “increase in the heat stress induced hsp72 level” value [3] was “more than 50%”. The “level of all HSPs increased further as compared to that observed upon heat stress” value [4] was “at least twofold”, the “decrease of relative GRP-94 content” value ([5]; 1 week and 2-weeks diabetic animals, 20 mg/kg/day p.o.) was “completely be reverted” and the “levels of GRP-94 compared to the control state” value ([5]; in combination with insulin, 1 week and 2-weeks samples) was “almost doubled”. The “relative amount of GRP-94” value ([5]; compound alone) was “no significant alteration”, the “relative amount of GRP-94” value ([5]; insulinized and treated with the compound) was “recovery of GRP-94 to the control level” and the “effect on Grp94 level” value ([6]; addition during recovery from heat stress lasting for 40 to 60 min.) was “almost effective as the administration”. The “increase of Grp94 compared to 43° C. treatment” value ([6]; preaddition of the drug combined with a 20 min. long heat shock) was 4 times and the proliferative effect [7] was “unexpected proliferative effect”.
